Some test systems named below: MCF7; SK-OV-3; PC-3; UO-31; MDA-MB-231; SNB-19; COLO 205; HOP-62; SF-295; SK-MEL-2; SF-268; MDA-MB-435; NCI-H460; DU-145; T47D; KM12; CCRF-CEM; HOP-92; U-251; EKVX.
Test in all cases: growth of human tumour cells (NCI), 48 h

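Compound exposure: 48 hours, 5 concentrations, 96-well plates. GI50 marks 50% less growth.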 Calls of active or inactive are those of the source. No stated cut-off is given here; in the data, active = GI50 up to about 1.1 µM and inactive = higher. Some results are limits rather than exact numbers.

In the case of `COc1cc([C@@H]2OC[C@@H]3C(c4cc(OC)c5c(c4)OCO5)OC[C@@H]32)cc(OC)c1OC` (stereo not given in full), the GI50 with MCF7 was > 100 µM (inactive); in the test on SK-OV-3 it was > 100 µM (inactive); in the test with PC-3, 50.1 µM (inactive); with UO-31 it was > 100 µM (inactive); with MDA-MB-231, > 100 µM (inactive); with SNB-19 it was > 100 µM (inactive). In addition, the GI50 in the test on COLO 205, with HOP-62, in the test with SF-295, in the test on SK-MEL-2, in the test with SF-268 and in the test with MDA-MB-435 was > 100 µM (inactive) throughout. For the same compound, the GI50 was > 100 µM (inactive) in the test with NCI-H460; > 100 µM (inactive) in the test on DU-145; 46.1 µM (inactive) with T47D; > 100 µM (inactive) in the test with KM12; 52.4 µM (inactive) in the test on CCRF-CEM; > 100 µM (inactive) in the test on HOP-92. Further, the GI50 in the test with U-251 and in the test with EKVX was > 100 µM (inactive) each time.
For `C[C@@H](Br)[C@@H]1CC[C@H]2c3[nH]c4ccccc4c3CCN2C1`, the GI50 with MCF7 was 23.7 µM (inactive); in the test on SK-OV-3 it was 24.7 µM (inactive); in the test with PC-3, 22.4 µM (inactive); in the test on UO-31, 24.8 µM (inactive); in the test with MDA-MB-231 it was 16.1 µM (inactive); with SNB-19 it was 20.1 µM (inactive). The GI50 was 13.5 µM (inactive) in the test with COLO 205; 18.6 µM (inactive) in the test with HOP-62; 19.5 µM (inactive) in the test with SF-295; 20.6 µM (inactive) with SK-MEL-2; 26.8 µM (inactive) in the test on SF-268; 16.3 µM (inactive) with MDA-MB-435. The GI50 with NCI-H460 was 22.5 µM (inactive); with DU-145, 29.3 µM (inactive); with T47D it was 16.5 µM (inactive); with KM12 it was 14.5 µM (inactive); in the test with CCRF-CEM it was 17.5 µM (inactive); in the test with HOP-92, 18.1 µM (inactive). Further, the GI50 in the test with U-251 is 21.5 µM (inactive); in the test on EKVX it was 33.1 µM (inactive).
Regarding `CN(C)CCCNc1c2ccccc2nc2cccc([N+](=O)[O-])c12`, the GI50 with MCF7 was < 0.001 µM (active); in the test with SK-OV-3 it was 0.00367 µM (active); in the test on PC-3, < 0.001 µM (active); in the test on UO-31 it was 0.013 µM (active); in the test on MDA-MB-231, < 0.001 µM (active); in the test on SNB-19, 0.00173 µM (active). The GI50 in the test on COLO 205 is < 0.001 µM (active); with HOP-62, 0.0011 µM (active); with SF-295 it was 0.0236 µM (active); in the test with SK-MEL-2 it was < 0.001 µM (active); in the test with SF-268, 0.00123 µM (active); in the test with MDA-MB-435, < 0.001 µM (active). The GI50 in the test on NCI-H460 was < 0.001 µM (active); in the test with DU-145 it was 0.00257 µM (active); in the test on T47D, 0.0158 µM (active); with KM12, 0.00117 µM (active); in the test with CCRF-CEM it was 0.00824 µM (active); in the test on HOP-92, < 0.001 µM (active). The results for the GI50 with U-251 and with EKVX were 0.0103 µM (active) and 0.00185 µM (active), respectively.
Regarding `CC1(c2ccc(Cl)cc2)N=C(NCCO)c2ccccc21` (stereo not given), the GI50 in the test with MCF7 was 20.7 µM (inactive); in the test with SK-OV-3, 88.7 µM (inactive); with PC-3 it was 32.7 µM (inactive); in the test on UO-31, 17.8 µM (inactive); with MDA-MB-231, 19.1 µM (inactive); with SNB-19, 14.7 µM (inactive). In addition, the GI50 in the test with COLO 205 was 13.5 µM (inactive); in the test on HOP-62, 25.1 µM (inactive); in the test with SF-295, 8.36 µM (inactive); with SK-MEL-2, 18.2 µM (inactive); in the test with SF-268, 42.9 µM (inactive); in the test with MDA-MB-435, 12.2 µM (inactive). For the same compound, the GI50 with NCI-H460 was 13.3 µM (inactive); in the test with DU-145, 2.07 µM (inactive); with T47D it was 15.9 µM (inactive); with KM12 it was 15.7 µM (inactive); in the test with CCRF-CEM it was 2.9 µM (inactive); in the test on HOP-92, 8.53 µM (inactive). Besides, the GI50 with U-251 was 16.9 µM (inactive); in the test with EKVX, > 100 µM (inactive).
Turning to `COC(=O)C1=NN2c3ccccc3CN([C@@H](C)c3ccccc3)C(=O)[C@H]2[C@@H]1C`, the GI50 is 36.3 µM (inactive) with MCF7; 62.5 µM (inactive) with SK-OV-3; 23.8 µM (inactive) in the test on PC-3; 56 µM (inactive) with UO-31; 83 µM (inactive) in the test with MDA-MB-231; 74.6 µM (inactive) in the test on SNB-19. Moreover, the GI50 in the test on COLO 205 was 18.1 µM (inactive); in the test on HOP-62, 52.1 µM (inactive); with SF-295, 35 µM (inactive); in the test with SK-MEL-2 it was 35.9 µM (inactive); in the test on SF-268, 40.3 µM (inactive); with MDA-MB-435, 32.1 µM (inactive). The GI50 was 38.1 µM (inactive) in the test on NCI-H460; 47.5 µM (inactive) in the test with DU-145; 17 µM (inactive) in the test on T47D; 31 µM (inactive) with KM12; 0.743 µM (active) in the test on CCRF-CEM; 44.7 µM (inactive) with HOP-92. Also, the GI50 was 42 µM (inactive) in the test on U-251 and 27.7 µM (inactive) in the test with EKVX.
For `O=C(/C=C/c1csc(-c2ccccc2)n1)NCc1ccc(C(=O)NCc2ccccc2)cc1`, the GI50 was > 100 µM (inactive) in the test on MCF7; > 100 µM (inactive) in the test with SK-OV-3; > 100 µM (inactive) in the test on PC-3; > 100 µM (inactive) with UO-31; 18.7 µM (inactive) with MDA-MB-231; 26.5 µM (inactive) with SNB-19. Moreover, the GI50 with COLO 205 was > 100 µM (inactive); in the test on HOP-62, 11.3 µM (inactive); in the test with SF-295, 30.4 µM (inactive); with SK-MEL-2 it was > 100 µM (inactive); in the test on SF-268 it was 35.3 µM (inactive); with MDA-MB-435, > 100 µM (inactive). Also, the GI50 with NCI-H460 is > 100 µM (inactive); with DU-145, > 100 µM (inactive); with T47D, > 100 µM (inactive); in the test on KM12 it was > 100 µM (inactive); in the test on CCRF-CEM, > 100 µM (inactive); with HOP-92 it was 24.4 µM (inactive). Besides, the GI50 is 32.9 µM (inactive) in the test on U-251 and > 100 µM (inactive) in the test with EKVX.
For the compound `COC1CC(C)(N)C(O)C(C)O1` (stereo not given), the GI50 with MCF7, with SK-OV-3, in the test on PC-3, in the test on UO-31, in the test on MDA-MB-231 and with SNB-19 was > 100 µM (inactive) each time. The GI50 with COLO 205, with HOP-62, in the test with SF-295, with SK-MEL-2, in the test on SF-268 and in the test with MDA-MB-435 was > 100 µM (inactive) each time. Further, the GI50 in the test on NCI-H460, with DU-145, in the test with T47D, in the test with KM12, with CCRF-CEM and with HOP-92 was > 100 µM (inactive) throughout. The GI50 in the test with U-251 and in the test on EKVX was > 100 µM (inactive) in each case.
Consider `Cn1/c(=N\N=C2\C=C3CCCCC3(C)CC2)sc2ccccc21` (stereo not given), for which the GI50 in the test on MCF7 is > 100 µM (inactive); in the test with SK-OV-3 it was > 100 µM (inactive); in the test on PC-3, > 100 µM (inactive); in the test on UO-31, > 100 µM (inactive); in the test on MDA-MB-231, 71.8 µM (inactive); in the test on SNB-19, > 100 µM (inactive). Further, the GI50 in the test on COLO 205, in the test with HOP-62, with SF-295, in the test with SK-MEL-2, in the test on SF-268 and in the test on MDA-MB-435 was > 100 µM (inactive) in each case. Also, the GI50 with NCI-H460 is > 100 µM (inactive); with DU-145, > 100 µM (inactive); in the test with T47D, > 100 µM (inactive); in the test with KM12, > 100 µM (inactive); in the test with CCRF-CEM, 55.2 µM (inactive); with HOP-92, > 100 µM (inactive). Besides, the GI50 in the test on U-251 and in the test with EKVX was > 100 µM (inactive) in each case.
With `COc1cc(NP(=O)(Oc2ccccc2)Oc2ccccc2)ccc1Nc1c2ccccc2nc2c1[nH]c1ccccc12`, the GI50 is 0.092 µM (active) with MCF7; 1.88 µM (inactive) in the test on SK-OV-3; 4.41 µM (inactive) in the test with PC-3; 0.617 µM (active) in the test with UO-31; 4.68 µM (inactive) with MDA-MB-231; 0.755 µM (active) in the test with SNB-19. The GI50 was 2.81 µM (inactive) with COLO 205; 0.359 µM (active) in the test on HOP-62; 0.344 µM (active) in the test with SF-295; 7.24 µM (inactive) in the test with SK-MEL-2; 6.52 µM (inactive) with SF-268; 3.11 µM (inactive) in the test on MDA-MB-435. The GI50 is 0.0226 µM (active) in the test with NCI-H460; 0.286 µM (active) in the test on DU-145; 0.867 µM (active) with T47D; 2.62 µM (inactive) with KM12; 0.183 µM (active) in the test on CCRF-CEM; 0.933 µM (active) with HOP-92. The figures for the GI50 in the test with U-251 and in the test on EKVX were 0.524 µM (active) and 9.71 µM (inactive), respectively.
In the case of `COc1ccc(Br)c2c1CC(C(=O)O)CC2` (stereo not given), the GI50 in the test with MCF7, in the test with SK-OV-3, in the test on PC-3, in the test with UO-31, with MDA-MB-231 and with SNB-19 was > 100 µM (inactive) each time. For the same compound, the GI50 with COLO 205, in the test on HOP-62, with SF-295, with SK-MEL-2, in the test on SF-268 and with MDA-MB-435 was > 100 µM (inactive) each time. The GI50 in the test on NCI-H460 was > 100 µM (inactive); in the test with DU-145 it was > 100 µM (inactive); in the test on T47D, > 100 µM (inactive); with KM12, > 100 µM (inactive); in the test on CCRF-CEM, > 100 µM (inactive); with HOP-92 it was > 78.5 µM (inactive). In addition, the GI50 in the test with U-251 and with EKVX was > 100 µM (inactive) each time.

The values are drawn from ChEMBL document CHEMBL1201862, “PubChem BioAssay data set” (2004).
